In the supplement of paper PMC11061612:

Assays:
Test in all cases: combination Emax (second highest fraction inhibited in the dose matrix, 72 h); higher = more inhibition; extreme values may be limits of the assay
[1] = system: BICR22 (Oral Cavity Carcinoma)
In short: (§1)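 Cell lines in DMEM/F12 or RPMI with 10% FBS were plated in 1536-well plates, held 24 hours at 37°C, 5% CO2, then given two-drug dose matrices for 72 hours (DMSO typically 0.2%). Viability was read by CellTiter-Glo 2.0 luminescence and scaled as inhibition from 0 (vehicle wells) to 1 (blank wells). Combination Emax is the second-highest inhibition in the matrix; Bliss excess is observed combination effect minus expected EA + EB − EA·EB, EA and EB being single-agent effects.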

[2] = system: CAPAN-2 (Pancreatic Carcinoma)
In short: as §1

[3] = system: CAS-1 (Glioblastoma)
In short: as §1

[4] = system: COLO-320-HSR (Colorectal Carcinoma)
In short: as §1

[5] = system: FU97 (Gastric Carcinoma)
In short: as §1

[6] = system: GI-ME-N (Neuroblastoma)
In short: as §1

[7] = system: KARPAS-422 (B-Cell Non-Hodgkin's Lymphoma)
In short: as §1

[8] = system: MDST8 (Colorectal Carcinoma)
In short: as §1

[9] = system: NCI-H1650 (Lung Adenocarcinoma)
In short: as §1

[10] = system: NCI-H1693 (Lung Adenocarcinoma)
In short: as §1

[11] = system: NCI-H2066 (Squamous Cell Lung Carcinoma)
In short: as §1

[12] = system: NCI-H2141 (Small Cell Lung Carcinoma)
In short: as §1

[13] = system: NCI-H2591 (Mesothelioma)
In short: as §1

[14] = system: ONS-76 (Other Solid Carcinomas)
In short: as §1

[15] = system: OS-RC-2 (Kidney Carcinoma)
In short: as §1

[16] = system: SISO (Cervical Carcinoma)
In short: as §1

[17] = system: SK-MG-1 (Low Grade Glioma)
In short: as §1

[18] = system: TT2609-C02 (Thyroid Gland Carcinoma)
In short: as §1

[19] = system: U-2-OS (Osteosarcoma)
In short: as §1

[20] = system: VCaP (Prostate Carcinoma)
In short: as §1

SMILES | combination Emax [1] | combination Emax [2] | combination Emax [3] | combination Emax [4] | combination Emax [5] | combination Emax [6] | combination Emax [7] | combination Emax [8] | combination Emax [9] | combination Emax [10] | combination Emax [11] | combination Emax [12] | combination Emax [13] | combination Emax [14] | combination Emax [15] | combination Emax [16] | combination Emax [17] | combination Emax [18] | combination Emax [19] | combination Emax [20]
NC1(C(=O)N[C@@H](CCO)c2ccc(Cl)cc2)CCN(c2ncnc3[nH]ccc23)CC1 [Capivasertib] + CC(C)n1c(=O)n(C)c2cnc3cc(F)c(-c4ccc(OCCCN5CCCCC5)nc4)cc3c21 [AZD1390] (first compound max 10 µM, 7x7, partner max 0.3 µM) | 0.312 | 0.222 | 0.543 | 0.172 | 0.361 | 0.335 | 0.507 | 0.363 | 0.317 | 0.315 | 0.553 | 0.249 | 0.182 | 0.386 | 0.401 | 0.269 | 0.519 | 0.167 | 0.288 | 0.458
NC1(C(=O)N[C@@H](CCO)c2ccc(Cl)cc2)CCN(c2ncnc3[nH]ccc23)CC1 [Capivasertib] + CCN(CCO)CCCOc1ccc2c(Nc3cc(CC(=O)Nc4cccc(F)c4)[nH]n3)ncnc2c1 [AZD2811] (first compound max 10 µM, 7x7, partner max 1 µM) | 0.562 | 0.219 | 0.635 | 0.174 | 0.369 | 0.324 | 0.531 | 0.511 | 0.351 | 0.36 | 0.534 | 0.345 | 0.297 | 0.589 | 0.445 | 0.477 | 0.607 | 0.542 | 0.383 | 0.543
NC1(C(=O)N[C@@H](CCO)c2ccc(Cl)cc2)CCN(c2ncnc3[nH]ccc23)CC1 [Capivasertib] + COc1nnc2ccc(N3CCC(c4ccc(OCCN5CCN(C)C(=O)[C@H]5C)cc4)CC3)nn12 [AZD5153] (first compound max 10 µM, 7x7, partner max 1 µM) | 0.631 | 0.33 | 0.735 | 0.242 | 0.821 | 0.343 | 0.68 | 0.733 | 0.442 | 0.554 | 0.77 | 0.377 | 0.334 | 0.627 | 0.433 | 0.421 | 0.721 | 0.461 | 0.354 | 0.96
NC1(C(=O)N[C@@H](CCO)c2ccc(Cl)cc2)CCN(c2ncnc3[nH]ccc23)CC1 [Capivasertib] + C[C@@H]1COCCN1C2=NC(=NC(=C2)C3(CC3)[S@](=N)(=O)C)C4=C5C=CNC5=NC=C4 [AZD6738] (first compound max 10 µM, 7x7, partner max 10 µM) | 0.812 | 0.219 | 0.735 | 0.507 | 0.482 | 0.411 | 0.566 | 0.765 | 0.541 | 0.44 | 0.626 | 0.557 | 0.482 | 0.852 | 0.481 | 0.586 | 0.668 | 0.364 | 0.535 | 0.567
NC1(C(=O)N[C@@H](CCO)c2ccc(Cl)cc2)CCN(c2ncnc3[nH]ccc23)CC1 [Capivasertib] + Cn1cnc2c(F)c(Nc3ccc(Br)cc3Cl)c(C(=O)NOCCO)cc21 [Selumetinib] (first compound max 10 µM, 7x7, partner max 10 µM) | 0.949 | 0.504 | 0.682 | 0.214 | 0.397 | 0.377 | 0.58 | 0.757 | 0.358 | 0.44 | 0.685 | 0.214 | 0.469 | 0.873 | 0.439 | 0.269 | 0.681 | 0.542 | 0.892 | 0.487
Cc1nc(Nc2ncc(C(=O)Nc3c(C)cccc3Cl)s2)cc(N2CCN(CCO)CC2)n1 [Dasatinib] + CC(=O)Nc1cccc(-n2c(=O)n(C3CC3)c(=O)c3c(Nc4ccc(I)cc4F)n(C)c(=O)c(C)c32)c1 [Trametinib] (first compound max 2 µM, 7x7, partner max 1 µM) | 0.615 | 0.892 | 0.946 | 0.15 | 0.422 | 0.49 | 0.469 | 0.781 | 0.419 | 0.699 | 0.402 | 0.129 | 0.527 | 0.888 | 0.353 | 0.157 | 0.65 | 0.748 | 0.9 | 0.0632
COc1cccc2c1C(=O)c1c(O)c3c(c(O)c1C2=O)C[C@@](O)(C(=O)CO)C[C@@H]3O[C@H]1C[C@H](N)[C@H](O)[C@H](C)O1 [Doxorubicin] + Cc1cc2ncnn2cc1Nc1ncc2c(n1)n(C1CCOCC1)c(=O)n2C [AZD7648] (first compound max 1 µM, 7x7, partner max 10 µM) | 0.945 | 0.197 | 0.775 | 0.464 | 0.59 | 0.812 | 0.954 | 0.965 | 0.591 | 0.405 | 0.262 | 0.475 | 0.693 | 0.935 | 0.348 | 0.909 | 0.802 | 0.414 | 0.55 | 0.641
COc1cc2ncnc(Nc3ccc(F)c(Cl)c3)c2cc1OCCCN1CCOCC1 [Gefitinib] + CC(C)n1c(=O)n(C)c2cnc3cc(F)c(-c4ccc(OCCCN5CCCCC5)nc4)cc3c21 [AZD1390] (first compound max 10 µM, 7x7, partner max 0.3 µM) | 0.272 | 0.148 | 0.134 | 0.19 | 0.149 | 0.0541 | 0.128 | 0.0181 | 0.236 | 0.419 | 0.384 | 0.0717 | 0.0235 | 0.11 | 0.145 | 0.0311 | 0.072 | 0.0663 | 0.0294 | 0.0675
CS(=O)(=O)CCNCc1ccc(-c2ccc3ncnc(Nc4ccc(OCc5cccc(F)c5)c(Cl)c4)c3c2)o1 [Lapatinib] + C[C@@H](Oc1cc(-c2cnn(C3CCNCC3)c2)cnc1N)c1c(Cl)ccc(F)c1Cl [Crizotinib] (first compound max 10 µM, 7x7, partner max 10 µM) | 0.933 | 0.741 | 0.962 | 0.894 | 0.81 | 0.392 | 0.96 | 0.738 | 0.799 | 0.883 | 0.58 | 0.795 | 0.572 | 0.73 | 0.584 | 0.626 | 0.9 | 0.476 | 0.486 | 0.465
CC(=O)c1c(C)c2cnc(Nc3ccc(N4CCNCC4)cn3)nc2n(C2CCCC2)c1=O [Palbociclib] + CC1(C)CCC(CN2CCN(c3ccc(C(=O)NS(=O)(=O)c4ccc(NCC5CCOCC5)c([N+](=O)[O-])c4)c(Oc4cnc5[nH]ccc5c4)c3)CC2)=C(c2ccc(Cl)cc2)C1 [Venetoclax] (first compound max 10 µM, 7x7, partner max 1 µM) | 0.209 | 0.0393 | 0.274 | 0.15 | 0.161 | 0.196 | 0.964 | 0.238 | 0.131 | 0.33 | 0.184 | 0.196 | 0.237 | 0.364 | 0.155 | 0.0637 | 0.282 | 0.275 | 0.142 | 0.164
CC(=O)c1c(C)c2cnc(Nc3ccc(N4CCNCC4)cn3)nc2n(C2CCCC2)c1=O [Palbociclib] + Cc1c2c(nn1C)CSCc1cc(n(C)n1)CSc1cc(c3ccccc3c1)OCCCc1c(C(=O)O)n(C)c3c-2c(Cl)ccc13 [AZD5991] (first compound max 10 µM, 7x7, partner max 1 µM) | 0.176 | 0.139 | 0.32 | 0.965 | 0.222 | 0.332 | 0.966 | 0.223 | 0.195 | 0.431 | 0.198 | 0.309 | 0.279 | 0.357 | 0.232 | 0.127 | 0.3 | 0.275 | 0.274 | 0.855
CC(=O)c1c(C)c2cnc(Nc3ccc(N4CCNCC4)cn3)nc2n(C2CCCC2)c1=O [Palbociclib] + Cn1cnc2c(F)c(Nc3ccc(Br)cc3Cl)c(C(=O)NOCCO)cc21 [Selumetinib] (first compound max 10 µM, 7x7, partner max 10 µM) | 0.477 | 0.356 | 0.289 | 0.177 | 0.377 | 0.245 | 0.81 | 0.671 | 0.15 | 0.38 | 0.244 | 0.139 | 0.288 | 0.734 | 0.235 | 0.17 | 0.344 | 0.527 | 0.601 | 0.159
COc1cccc(OCCCN)c1-c1cc(Nc2cnc(C#N)cn2)n[nH]1 [Prexasertib] + C=CCn1c(=O)c2cnc(Nc3ccc(N4CCN(C)CC4)cc3)nc2n1-c1cccc(C(C)(C)O)n1 [AZD1775] (first compound max 1 µM, partner max 1 µM) | 0.813 | 0.569 | 0.696 | 0.86 | 0.367 | 0.513 | 0.985 | 0.954 | 0.6 | 0.461 | 0.621 | 0.588 | 0.472 | 0.829 | 0.519 | 0.891 | 0.908 | 0.449 | 0.934 | 0.774
